Measurements reported in patent US9255279B2, “Anaplastic lymphoma kinase (ALK) as an oncogene capable of transforming normal human cells” (The Trustees of the University of Pennsylvania, priority 2013, dated 2016).

How the values were obtained:
PD-L1 = PD-L1 expression by flow cytometry; type: cell-based, human; conditions: 100 nM; FIG. 3D
Procedure: (§1) The cells were analyzed using FACSCalibur (BD Biosciences) and, for data analysis, CellQuest Pro software version 6.03 (BD Biosciences). For the standard cell-surface staining, 0.5−1.0×10^6 cells were incubated for 20 minutes at 4° C. with 10-20 ul of fluorescein isothiocyanate-conjugated (FITC), phycoerythrin-conjugated (PE), or allophycocyanin-conjugated (APC) standard anti-T- and B-cell antibodies, PD-L1 or isotype control antibody (Bio-Legend, San Diego, Calif.). The intracellular staining was performed by using commercially available fixation and permeabilization reagents (BD Biosciences or Life Technologies, Carlsbad, Calif.). In brief, 0.5−1.0×10^6 washed membrane-stained or unstained cells were fixed for 15 minutes at room temperature with 100 ul of Fix/Per-solution or Fixation medium. After washing the cells were re-suspended in 100 ul of PBS or Permeabilization medium, and incubated for 15 minutes at room temperature with 10-20 ul of PE-labeled ALK or isotype control antibody (BD Biosciences). After additional washing, cells were analyzed by flow cytometry (FACSCalibur; BD Biosciences). Data acquisition and analysis were performed using CellQuest Pro software version 6.03 (BD Biosciences).

NPM-ALK [1] = molecular target: T1, NPM-ALK (Homo sapiens, UniProt Q9UM73); experiment: Western blotting of phosphorylated signaling proteins in NPM-ALK-transformed CD4+ T cells (NA1, NA2) and SUDHL-1; type: cell-based; parameters: expressed in transfected cells; host or cells: Human CD4+ T cells transduced with a lentiviral vector (lines NA1, NA2); The control line SUDHL-1 expresses NPM-ALK endogenously from the translocation; the other entry of the earlier key: NPM1 (P06748, Nucleophosmin); conditions: NA1, NA2 and control SUDHL-1 cells, 100 nM, FIG. 3A
T1 sequence (Q9UM73 with tags, fused parts or gaps): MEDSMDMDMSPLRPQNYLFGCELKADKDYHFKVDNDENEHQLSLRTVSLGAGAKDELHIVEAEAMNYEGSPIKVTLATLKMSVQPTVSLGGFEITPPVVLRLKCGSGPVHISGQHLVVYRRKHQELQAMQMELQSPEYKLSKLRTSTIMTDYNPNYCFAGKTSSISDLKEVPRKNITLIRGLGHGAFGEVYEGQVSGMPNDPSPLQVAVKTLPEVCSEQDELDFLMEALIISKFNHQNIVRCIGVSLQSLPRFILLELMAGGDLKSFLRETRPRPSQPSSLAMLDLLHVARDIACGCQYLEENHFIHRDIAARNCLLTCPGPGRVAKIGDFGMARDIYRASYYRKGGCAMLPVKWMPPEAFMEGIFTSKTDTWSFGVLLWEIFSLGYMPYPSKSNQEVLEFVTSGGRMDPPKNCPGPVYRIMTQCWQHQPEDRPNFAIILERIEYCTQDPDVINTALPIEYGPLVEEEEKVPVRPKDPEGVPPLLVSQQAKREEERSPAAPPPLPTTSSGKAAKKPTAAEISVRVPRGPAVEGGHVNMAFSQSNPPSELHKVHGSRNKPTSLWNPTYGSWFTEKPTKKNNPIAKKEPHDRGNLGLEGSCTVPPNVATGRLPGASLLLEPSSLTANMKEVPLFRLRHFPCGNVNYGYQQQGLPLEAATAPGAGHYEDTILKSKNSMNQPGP
Procedure: (§2) These experiments were performed using antibodies against phosphorylated (p)-ALK, p-STAT3, p-S6RP, total S6RP (Cell Signaling Technology), total NPM-ALK (Pharmigen, San Diego, Calif.), and total STAT3 and actin (ACTB), both from Santa Cruz Biotechnology (Santa Cruz, Calif.), according to the standard protocols.
A mixture of four siRNAs specific for ALK or control siRNAs (all from Dharmacon; Thermo Fisher Scientific, Waltham, Mass.) was introduced into cells using Lipofectamine 2000 as described previously (Marzec et al., 2008, Proc Natl Acad Sci USA 105(52):20852-20857) for SUDHL-1 cells and Nucleofector T-solution (Amaxa; Lonza, Walkersville, Md.) for CD4+ T-cell derived NA1 cells.

IL-10 = IL-10 assay; type: cell-based, human; conditions: 100 nM; FIG. 3C
Procedure: IL-10 expression was using a Human Cytokine 10-Plex Antibody Bead Kit (Life Technologies) as per manufacturer protocol. Sample acquisition employed a Luminex FlexMAP-3D (Life Technologies), and analyses performed using xPONENT software (version 4.0). A nine-point standard curve at threefold dilutions was employed with the range defined by 80%-120% of expected/observed values. Samples were tested in duplicate and CV was <10%. The results are presented as the decrease in the ALK inhibitor (CEP-28122)-treated cells relative to untreated cells.
Total RNA was extracted (RNeasy kit; Qiagen) and reverse transcribed using High Capacity RNA-to-cDNA kit (ABI). Expression levels of NPM-ALK mRNA were quantified by using an ABI/PRISM 7700 sequence detection system with TaqMan Gene Expression Assay kits (NPM-ALK, Hs03024829; β-actin, Hs9999903) (Life Technologies) and SYBR Green assay (Life Technologies) using primers for IL-10 (5′-AAGGCGCATGTGAACTCC-3′; SEQ ID NO: 1 and 5′-[…]-3′; SEQ ID NO: 2) and for GAPDH (5′-[…]-3′; SEQ ID NO: 3 and 5′-[…]-3′; SEQ ID NO: 4. All assays were performed in duplicate. The fold difference in RNA levels was calculated on the basis of the difference between CT values obtained for control and individual mRNA (ΔCT).

CD30 [2] = experiment: CD30 expression by flow cytometry in NPM-ALK-transformed CD4+ T cells and ALK+ALCL-derived cells; type: cell-based, human; conditions: 100 nM, FIG. 3B
Procedure: as §1

NPM-ALK [3] = molecular target: T1, NPM-ALK; experiment: Phosphorylation of ALK and its targets in NPM-ALK-transfected HEK cells; type: cell-based; parameters: expressed in transfected cells; the other entry of the earlier key: NPM1 (P06748, Nucleophosmin); conditions: higher dose of inhibitor needed, FIG. 10
Procedure: as §2

CD30 [4] = experiment: CD30 expression in ALK-negative T-cell lymphoma line 2A; type: cell-based, human; conditions: ALK-negative T-cell lymphoma cells (2A); FIG. 3B
Procedure: as §1

[5] = test system: NPM-ALK-transformed CD4+ T cells; experiment: Cell growth of NPM-ALK-transformed CD4+ T cells; type: cell-based, human; conditions: FIG. 3E and FIG. 12A
Procedure: The cells suspended at 2×10^4/well were incubated at 37° C. in microtiter plates for up to two days, then incubated with MTT (Promega Madison, […].) for 4 hours. Well contents were solubilized overnight in the medium containing 10% SDS and 0.01M HCL. Absorbance at 570 nm in each well was measured using a Titertek Multiskan reader (Thermo Fisher Scientific).
The assay was performed using a cell-proliferation enzyme linked immunosorbent assay (ELISA; Roche Diagnostics, Indianapolis, Ind.) according to the manufacturer's protocol. In brief, cells were cultured at a concentration of 2×10^4 cells per well for 44 hours and labeled with bromodeoxyuridine for 4 hours. After centrifugation, supernatant removal, and plate drying, the cells were fixed and the DNA was denatured using FixDenat reagent (Roche Diagnostics). The amount of incorporated bromodeoxyuridine was determined by incubation with a specific antibody conjugated with horseradish peroxidase, followed by colorimetric conversion of the substrate and absorbance evaluation in the ELISA plate reader.
For annexin V expression assay, cells were treated with the ALK inhibitor CEP-28122 (100 nmol/L) for 48 hours or with ALK siRNA (100 pmol/L) for 72 hours. […] The stained cells were analyzed by flow cytometry using a FACSCalibur system (BD Biosciences); data acquisition and analysis were performed using Cell-Quest Pro software (BD Biosciences).

COc1c(Nc2ncc(Cl)c(N[C@H]3[C@@H](C(N)=O)[C@@H]4C=C[C@H]3C4)n2)ccc2c1CC[C@@H](N1CCOCC1)CC2 [CEP-28122]
expression of PDL-1 (PD-L1): Suppressive effect | phosphorylation of cell signaling proteins (ALK, STAT3, S6RP) (NPM-ALK [1]): Suppressive effect | phosphorylation of cell signaling proteins (ALK, STAT3, S6RP) (NPM-ALK [1]; listed as ALK inhibitor): suppression | synthesis of IL-10 (IL-10): Suppressive effect | expression of CD30 (CD30 [2]): Suppressive effect | expression of CD30 (CD30 [2]; listed as ALK inhibitor): diminished | ALK, STAT3 and S6RP phosphorylation (NPM-ALK [3]): suppress | CD30 expression (CD30 [4]): no effect | cell growth [5]: dose-dependent inhibition | cell growth ([5]; listed as ALK inhibitor): suppressed
